Test results reported in ChEMBL document CHEMBL5620394, “Synthesis of new antiproliferative 1,3,4-substituted-pyrrolo[3,2-c]quinoline derivatives, biological and in silico insights” (Eur J Med Chem, 2023).
Calls of active or inactive are those of the source. The rule behind the calls is not given here.

Assays:
[1] = test system: MCF7; test: Antiproliferative activity against human MCF7 cells assessed as reduction in cell growth at 10 to 100 uM incubated for 4 hrs by MTS assay; assay type: functional, cell-based; conditions: dose 10-100 µM
[2] = test system: LA-N-5; test: Antiproliferative activity against human LA-N-5 cells assessed as reduction in cell growth at 10 to 100 uM incubated for 4 hrs by MTS assay; assay type: functional, cell-based; conditions: dose 10-100 µM
[3] = test system: CCRF-CEM; test: Antiproliferative activity against human CCRF-CEM cells assessed as cell growth at 10 uM incubated for 48 hrs by sulforhodamine B assay relative to control; assay type: functional; conditions: read-out: Activity
[4] = test system: HL-60; test: Antiproliferative activity against human HL-60 cells assessed as cell growth at 10 uM incubated for 48 hrs by sulforhodamine B assay relative to control; assay type: functional; conditions: read-out: Activity
[5] = test system: K562; test: Antiproliferative activity against human K562 cells assessed as cell growth at 10 uM incubated for 48 hrs by sulforhodamine B assay relative to control; assay type: functional; conditions: read-out: Activity
[6] = test system: MOLT-4; test: Antiproliferative activity against human MOLT-4 cells assessed as cell growth at 10 uM incubated for 48 hrs by sulforhodamine B assay relative to control; assay type: functional; conditions: read-out: Activity
[7] = test system: RPMI-8226; test: Antiproliferative activity against human RPMI-8226 cells assessed as cell growth at 10 uM incubated for 48 hrs by sulforhodamine B assay relative to control; assay type: functional; conditions: read-out: Activity
[8] = test system: SR; test: Antiproliferative activity against human SR cells assessed as cell growth at 10 uM incubated for 48 hrs by sulforhodamine B assay relative to control; assay type: functional; conditions: read-out: Activity
[9] = test system: NCI-H226; test: Antiproliferative activity against human NCI-H226 cells assessed as cell growth at 10 uM incubated for 48 hrs by sulforhodamine B assay relative to control; assay type: functional; conditions: read-out: Activity
[10] = test system: NCI-H522; test: Antiproliferative activity against human NCI-H522 cells assessed as cell growth at 10 uM incubated for 48 hrs by sulforhodamine B assay relative to control; assay type: functional; conditions: read-out: Activity
[11] = test system: SNB-75; test: Antiproliferative activity against human SNB-75 cells assessed as cell growth at 10 uM incubated for 48 hrs by sulforhodamine B assay relative to control; assay type: functional; conditions: read-out: Activity
[12] = test system: UACC-257; test: Antiproliferative activity against human UACC-257 cells assessed as cell growth at 10 uM incubated for 48 hrs by sulforhodamine B assay relative to control; assay type: functional; conditions: read-out: Activity
[13] = test system: UACC-62; test: Antiproliferative activity against human UACC-62 cells assessed as cell growth at 10 uM incubated for 48 hrs by sulforhodamine B assay relative to control; assay type: functional; conditions: read-out: Activity
[14] = test system: 786-0; test: Antiproliferative activity against human 786-0 cells assessed as cell growth at 10 uM incubated for 48 hrs by sulforhodamine B assay relative to control; assay type: functional; conditions: read-out: Activity
[15] = test system: CAKI-1; test: Antiproliferative activity against human CAKI-1 cells assessed as cell growth at 10 uM incubated for 48 hrs by sulforhodamine B assay relative to control; assay type: functional; conditions: read-out: Activity
[16] = test system: UO-31; test: Antiproliferative activity against human UO-31 cells assessed as cell growth at 10 uM incubated for 48 hrs by sulforhodamine B assay relative to control; assay type: functional; conditions: read-out: Activity
[17] = test system: PC-3; test: Antiproliferative activity against human PC-3 cells assessed as cell growth at 10 uM incubated for 48 hrs by sulforhodamine B assay relative to control; assay type: functional; conditions: read-out: Activity
[18] = test system: MCF7; test: Antiproliferative activity against human MCF7 cells assessed as cell growth at 10 uM incubated for 48 hrs by sulforhodamine B assay relative to control; assay type: functional; conditions: read-out: Activity
[19] = test system: MDA-MB-231; test: Antiproliferative activity against human MDA-MB-231 cells assessed as cell growth at 10 uM incubated for 48 hrs by sulforhodamine B assay relative to control; assay type: functional; conditions: read-out: Activity
[20] = test system: T47D; test: Antiproliferative activity against human T47D cells assessed as cell growth at 10 uM incubated for 48 hrs by sulforhodamine B assay relative to control; assay type: functional; conditions: read-out: Activity
[21] = test system: HT-29; test: Antiproliferative activity against human HT-29 cells assessed as cell growth at 10 uM incubated for 48 hrs by sulforhodamine B assay relative to control; assay type: functional; conditions: read-out: Activity
[22] = Antiproliferative activity against human 16HBE14o- cells assessed as inhibition of cell growth incubated for 4 hrs by MTS assay; assay type: toxicity, cell-based; conditions: read-out: IG50
[23] = test system: HeLa; test: Antiproliferative activity against human HeLa cells assessed as inhibition of cell growth incubated for 4 hrs by MTS assay; assay type: functional
[24] = test system: MCF7; test: Antiproliferative activity against human MCF7 cells assessed as inhibition of cell growth incubated for 4 hrs by MTS assay; assay type: functional
[25] = test system: A549; test: Antiproliferative activity against human A549 cells assessed as cell growth at 10 uM incubated for 48 hrs by sulforhodamine B assay relative to control; assay type: functional; conditions: read-out: Activity
[26] = test system: EKVX; test: Antiproliferative activity against human EKVX cells assessed as cell growth at 10 uM incubated for 48 hrs by sulforhodamine B assay relative to control; assay type: functional; conditions: read-out: Activity
[27] = test system: HOP-62; test: Antiproliferative activity against human HOP-62 cells assessed as cell growth at 10 uM incubated for 48 hrs by sulforhodamine B assay relative to control; assay type: functional; conditions: read-out: Activity
[28] = test system: HCT-116; test: Antiproliferative activity against human HCT-116 cells assessed as cell growth at 10 uM incubated for 48 hrs by sulforhodamine B assay relative to control; assay type: functional; conditions: read-out: Activity
[29] = test system: HCT-15; test: Antiproliferative activity against human HCT-15 cells assessed as cell growth at 10 uM incubated for 48 hrs by sulforhodamine B assay relative to control; assay type: functional; conditions: read-out: Activity
[30] = test system: KM12; test: Antiproliferative activity against human KM12 cells assessed as cell growth at 10 uM incubated for 48 hrs by sulforhodamine B assay relative to control; assay type: functional; conditions: read-out: Activity
[31] = test system: SF-295; test: Antiproliferative activity against human SF-295 cells assessed as cell growth at 10 uM incubated for 48 hrs by sulforhodamine B assay relative to control; assay type: functional; conditions: read-out: Activity
[32] = test system: MDA-MB-435; test: Antiproliferative activity against human MDA-MB-435 cells assessed as cell growth at 10 uM incubated for 48 hrs by sulforhodamine B assay relative to control; assay type: functional; conditions: read-out: Activity
[33] = test system: IGROV-1; test: Antiproliferative activity against human IGROV-1 cells assessed as cell growth at 10 uM incubated for 48 hrs by sulforhodamine B assay relative to control; assay type: functional; conditions: read-out: Activity
[34] = test system: SK-OV-3; test: Antiproliferative activity against human SK-OV-3 cells assessed as cell growth at 10 uM incubated for 48 hrs by sulforhodamine B assay relative to control; assay type: functional; conditions: read-out: Activity
[35] = test system: ACHN; test: Antiproliferative activity against human ACHN cells assessed as cell growth at 10 uM incubated for 48 hrs by sulforhodamine B assay relative to control; assay type: functional; conditions: read-out: Activity
[36] = test system: MDA-MB-468; test: Antiproliferative activity against human MDA-MB-468 cells assessed as cell growth at 10 uM incubated for 48 hrs by sulforhodamine B assay relative to control; assay type: functional; conditions: read-out: Activity
[37] = test system: LOX IMVI; test: Antiproliferative activity against human LOX IMVI cells assessed as cell growth at 10 uM incubated for 48 hrs by sulforhodamine B assay relative to control; assay type: functional; conditions: read-out: Activity

Compound | Activity [1] | growth at 10 µM [3] | growth at 10 µM [4] | growth at 10 µM [5] | growth at 10 µM [6] | growth at 10 µM [7] | growth at 10 µM [8] | growth at 10 µM [9] | growth at 10 µM [10] | growth at 10 µM [11] | growth at 10 µM [12] | growth at 10 µM [13] | growth at 10 µM [14] | growth at 10 µM [15] | growth at 10 µM [16] | growth at 10 µM [17] | growth at 10 µM [18] | growth at 10 µM [19] | growth at 10 µM [20] | growth at 10 µM [21] | also measured
CC(=O)c1c(C)n(-c2ccccc2)c2c1c(-c1ccccc1)nc1ccccc12 | Active | 95.9% | 90.7% | 76.8% | 77.6% | 87.5% | 79.5% | 84.2% | 77% | 75.1% | 98.1% | 70.4% | 88.5% | 72.3% | 59.6% | 85.7% | 89.6% | 76.3% | 102% | – | Activity [2]: Active
CC(=O)c1c(C)n(C)c2c1c(-c1ccccc1)nc1ccccc12 | Active | 92.7% | 76.8% | 102% | 89.4% | 79.4% | 94.7% | 88.4% | 95.6% | 85.8% | 96.4% | 87.8% | 101% | 87.2% | 68.8% | 69.8% | 95.6% | 94.3% | 98.9% | 112% | –
CC(=O)c1c(C)n(-c2ccccc2)c2c1c(-c1ccc(C)o1)nc1ccccc12 | – | 74.2% | 63.4% | 71.6% | 76.7% | 70.5% | 80.3% | 41% | 71.1% | 93.8% | 90.8% | 85.1% | 93.6% | 85.3% | 79.1% | 69.6% | 88.4% | 73.3% | 99.7% | 68.4% | Activity [2]: Active
CC(=O)c1c(C)[nH]c2c1c(-c1ccccc1)nc1ccccc12 | Active | 87.2% | 82.7% | 92.6% | 106% | 87.9% | 71.9% | 76.7% | 72.3% | 42.3% | 75.1% | 62.4% | 76.7% | 54% | 36.6% | 78.6% | 73.7% | 84.4% | 82.5% | 92.8% | GI50 at 4 h [22]: 10 µM; IG50 [23]: 10 µM; IG50 [24]: 10 µM
CC(=O)c1c(C)[nH]c2c1c(-c1cc(Cl)cc(Cl)c1O)nc1ccccc12 | – | 58.2% | – | 74.8% | 51.6% | 66.7% | 52.2% | 87.4% | 70% | 72.8% | 118% | – | – | 77.6% | 56.8% | 71.4% | 74% | 72% | 61.9% | – | growth at 10 µM [25]: 83.5%; growth at 10 µM [26]: 72.8%; growth at 10 µM [27]: 79.9%; growth at 10 µM [28]: 75.2%; growth at 10 µM [29]: 73.1%; growth at 10 µM [30]: 75.1%; growth at 10 µM [31]: 74.1%; growth at 10 µM [32]: 85.6%; growth at 10 µM [33]: 75.6%; growth at 10 µM [34]: 75.2%; growth at 10 µM [35]: 71.2%; growth at 10 µM [36]: 89.7%; growth at 10 µM [37]: 73.6%
